Consider five compounds from paper PMC11620517, “Novel hydrazone compounds with broad-spectrum antiplasmodial activity and synergistic interactions with antimalarial drugs” (Antimicrobial Agents and Chemotherapy, 2024).

Where two headings read alike, the source gives them in different places.

One data set is described as follows: in vitro. The following applies: human.
The target of data set [1] is T1, recombinant P. falciparum GST (Plasmodium falciparum, UniProt Q8ILQ7).
T1 construct: The open reading frames encoding PfGST, PbGST, and hGST were gene-synthesized; TEV cleavage site (C); Avitag (C); purchased InterRayBio, LLC; host or cells: E. coli BL21 (DE3)
T1 sequence (Q8ILQ7 1-211): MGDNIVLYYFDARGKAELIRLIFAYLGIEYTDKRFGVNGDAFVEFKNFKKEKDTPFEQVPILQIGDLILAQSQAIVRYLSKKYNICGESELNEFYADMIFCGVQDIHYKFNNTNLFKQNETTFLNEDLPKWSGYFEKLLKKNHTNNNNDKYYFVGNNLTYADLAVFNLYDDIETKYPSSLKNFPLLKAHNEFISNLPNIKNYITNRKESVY
Kind of data set: GST inhibition assay (CDNB). The class given is biochemical. Conditions: 6-point 1–50 µM. The protocol:
(§1) Enzymatic activities of recombinant GSTs were determined spectrophotometrically using the chromogenic substrate 1-chloro-2,4-dinitrobenzene (CDNB). Recombinant GST (0.35 mg/mL) was mixed with 1 mM CDNB in 100 mM HEPES. Stock solutions (10 mM) of the CB compounds and hemin were prepared in 100% dimethyl sulfoxide (DMSO) and then diluted at 0.5% DMSO ([14]). Each inhibitor has six concentrations ranging from 1 to 50 µM. The reaction was initiated with 1 mM glutathione (GSH) after 15 minutes. Absorbance change at 340 nm was measured for 1 hour. The slope was converted to micromole per minute using Beer’s equation and the extinction coefficient for the product S-(2,4-dinitrophenyl)glutathione (ε340 nm = 9.6 mM^–1 cm^–1) ([14]). The assay was validated using human placenta GST (#G8642) as a positive control.

The target in another data set is T2, human GST (Homo sapiens, UniProt P08263).
T2 construct: The open reading frames encoding PfGST, PbGST, and hGST were gene-synthesized; TEV cleavage site (C); Avitag (C); purchased InterRayBio, LLC; host or cells: E. coli BL21 (DE3)
T2 sequence (P08263 1-222): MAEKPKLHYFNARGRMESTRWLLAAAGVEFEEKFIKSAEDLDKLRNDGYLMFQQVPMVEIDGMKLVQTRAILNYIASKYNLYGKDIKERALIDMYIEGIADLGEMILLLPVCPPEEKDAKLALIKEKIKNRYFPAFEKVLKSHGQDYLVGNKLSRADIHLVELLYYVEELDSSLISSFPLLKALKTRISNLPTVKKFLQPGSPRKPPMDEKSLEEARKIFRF
Kind of data set: GST inhibition assay (CDNB). The data set is classed as biochemical. The following applies: 6-point 1–50 µM. The protocol:
as §1

The test system of data set [2] is recombinant P. berghei GST. Put plainly: GST inhibition assay (CDNB). The data set is classed as biochemical, Plasmodium berghei. Conditions: 6-point 1–50 µM. The protocol:
as §1

Data set [3] concerns P. cynomolgi hypnozoites and hepatic schizonts. Kind of data set: P. cynomolgi liver-stage inhibition assay. The class given is cell-based, Plasmodium cynomolgi. The following applies: for IC50: Plasmodium cynomolgi. The protocol:
(§2) Primary primate hepatocytes were seeded in 384-well plates and used within 2–4 days ([56]). P. cynomolgi B strain parasites were inoculated and developed into hypnozoites and schizonts. CB compounds were tested in 8-point, threefold serial dilutions (100 µM to […]) for both prophylactic (4 days starting with sporozoite addition) and radical cure (4 days starting day 4 post-inoculation) modalities ([56][–][60]). The Operetta CLS imaging system and Harmony Software 4.9 (Perkin Elmer, Waltham, MA, USA) analyzed the plates, and the percentage of inhibition (PI) was calculated in Python using equation (1), where parasitic quantities (hypnozoite and schizont counts) were normalized to the negative control ([57]). Each plate included negative (DMSO) and positive (KDU691, maduramicin, tafenoquine) controls ([58]). IC50 values were determined using an 8-point, threefold dilution format and a Python-adapted grid algorithm for fitting PI to a four-parameter logistic function ([61]).
PI = 100 ∗(1−(xy/Meanneg))

Another data set has as its system P. falciparum C2B. Kind of data set: Malaria SYBR Green I-Based Fluorescence (MSF) assay, blood stages. The data set is classed as cell-based. Conditions: Plasmodium falciparum, 72 h, read-out: IC50 (µM) (±SD) for strain: C2B. The protocol: (§3) MSF assays were performed in vitro with four P. falciparum strains: D6 (drug sensitive), TM91-C235 (multidrug resistant), W2 (CQ resistant), and C2B (multidrug resistant against ATQ). Parasite strains were kept continuously in long-term cultures as described ([22]). Pre-dosed 384-well plates containing […] serial dilutions of CB compounds (0.0098–20 µM) were prepared using the Tecan Freedom Evo liquid handling system (Tecan USA, Inc., Durham, NC, USA) and were stored at 4°C. A CQ control plate (2,000 ng/mL) was included in each run. Based on modifications of previous methods ([17], [55]), late-ring or early-trophozoite stages were cultured in pre-dosed plates with 0.3% parasitemia and 2% hematocrit. Cultures were incubated for 72 hours at 37°C in a controlled atmosphere of 5% CO2, 5% O2, and 90% N2. Lysis buffer, consisting of 20 mM Tris HCl, 5 mM EDTA, 1.6% Triton X, 0.016% saponin, and SYBR Green I dye at a 20X concentration (Invitrogen #S-7567), was added to the plates for a final 10X SYBR Green concentration. Plates containing cell culture media and lysis buffer were incubated in the dark at 25°C for 24 hours, and the relative fluorescence units (RFU) were measured using the Tecan Genios Plus (Tecan USA, Inc.).

A further data set concerns P. falciparum TM91c235. The data set is described as above. Conditions: Plasmodium falciparum, read-out: IC50 (µM) (±SD) for strain: TM91c235. The data set is classed as cell-based. The protocol:
as §3

The test system of a further data set is P. falciparum W2. The description is as above. The data set is classed as cell-based. The following applies: Plasmodium falciparum, read-out: IC50 (µM) (±SD) for strain: W2. The protocol:
as §3

The next data set deals with P. falciparum D6. The data set is described as above. The class given is cell-based. The following applies: Plasmodium falciparum, read-out: IC50 (µM) (±SD) for strain: D6. The protocol: as §3
In data set [4] the test system is P. berghei ookinete development (Ookluc parasites). Put plainly: P. berghei ookinete luciferase inhibition assay. The data set is classed as cell-based, Plasmodium berghei. The following applies: for IC50: read-out: IC50 (ookinete development). The protocol:
Mice were pretreated with phenylhydrazine [6 mg/mL, intraperitoneal injection (IP)] 3 days before intravenous injection (IV) infection with P. berghei Ookluc parasites ([19], [62]). Once parasitemia exceeded 15%, the mice received PYR (1 mg/mL, IP) ([19], [62]). Twenty-four hours after PYR treatment, infected mice were assessed for at least 10 exflagellations before blood was collected by heart puncture ([19], [62]). Infected blood (1:20 dilution) was incubated with 8-point serial dilutions (2.5–75 µM) of CB compounds for 24 hours at 19°C with gentle shaking ([62], [64]). Relative luminescence units (RLU) of mature ookinetes were measured using the Promega Nano-Glo Luciferase Assay System Kit and a SpectraMax M3 Microplate Reader (Molecular Devices, San Jose, CA, USA) after 3 minutes. Giemsa blood smears confirmed ookinetes.

Data set [5] concerns primary primate hepatocytes. Kind of data set: hepatocyte toxicity in the P. cynomolgi liver-stage assay. The class given is cell-based. The protocol: as §2
Where [6] appears, read: prophylactic drug treatment mode, read-out: Hypnozoite IC50.
The mark [7] stands for this setting: prophylactic drug treatment mode, read-out: Schizont IC50.
[8] abbreviates: prophylactic drug treatment mode, read-out: Total parasite IC50.
The mark [9] stands for this setting: blood stages, 72 hours, multidrug resistant strain.
The mark [10] stands for this setting: W2, blood stages, 72 hours, CQ resistant strain.
Setting [11] is: D6, blood stages, 72 hours, drug-sensitive strain.
Where [12] appears, read: Plasmodium berghei, 24 h, 24 hours at 19°C, luminescence.

Description for in vitro: HepG2 cell viability was assessed using the Cell Proliferation kit with trypan blue exclusion. […] After incubation, a 1.5-mg/mL Cell Proliferation kit solution diluted in complete MEM medium was added to each well, followed by 1-hour dark incubation at 25°C. After aspiration of media and inhibitors, the plates were dried in a hood for 15 minutes, and acidified isopropyl alcohol was added to dissolve formazan dye crystals. The plates were then rotated for 15–30 minutes, and absorbance was determined using a Perkin Elmer Ensight plate reader.

As for `COc1cccc(/C=N/NC(=O)c2nc(-c3ccccc3)cc(-c3ccccc3)n2)c1O` [CB-41], the IC50 – broadly, the concentration that gives 50% inhibition – at 48 h in the data set “in vitro” (HepG2 cells) is over 20 µM. In addition, the GST inhibition entry (in [1]; at human GST; in data set [2]) was “did not inhibit” in each case. Also, the IC50 in data set [3] (setting [6]) was 8.7 µM; in data set [3] (setting [7]), 8.4 µM; in data set [3] (setting [8]) it was 8.6 µM; with P. falciparum C2B, 2.73 µM; in the data set on P. falciparum TM91c235 (setting [9]), 2.26 µM; in the data set on P. falciparum W2 (setting [10]), 2.71 µM. Further, the IC50 in the data set on P. falciparum D6 (setting [11]) was 2.26 µM; in data set [4] (24 hours at 19°C, luminescence), 8.4 µM; in data set [4] (setting [12]), 16.6 µM. Also, the “antiplasmodial activity on liver stages” value in [3] (radical cure mode) is “did not show antiplasmodial activity”. Further, the Toxicity in data set [5] is reported as over 10 µM.
As to `O=C(N/N=C/c1c(O)ccc2ccccc12)c1cc([N+](=O)[O-])cc([N+](=O)[O-])c1` [CB-61], the IC50 at 48 h in “in vitro” was over 20 µM. Also, the GST inhibition entry (in data set [1]; on human GST; in data set [2]) was “did not inhibit” in each case. The IC50 in [3] (read-out: Hypnozoite IC50) is over 10 µM; in data set [3] (read-out: Schizont IC50), over 10 µM; in data set [3] (read-out: Total parasite IC50), over 10 µM; in the data set with P. falciparum C2B it was 0.3 µM; with P. falciparum TM91c235 (72 h) it was 0.26 µM; with P. falciparum W2 (W2, 72 h) it was 0.22 µM. The IC50 is 0.2 µM in the data set on P. falciparum D6 (D6, 72 h) and 29.5 µM in data set [4] (Plasmodium berghei, 24 h). This compound displayed a Toxicity in data set [5] of over 10 µM.
Turning to `COc1cccc(/C=N/NC(=O)c2cc(-c3ccccc3)nc3ccccc23)c1O` [CB-58], the IC50 at 48 h in the data set “in vitro” (HepG2 cells) was over 20 µM. In addition, the GST inhibition entry (in [1]; on human GST; in [2]) was “did not inhibit” in each case. The IC50 was over 10 µM in data set [3] (setting [6]); over 10 µM in [3] (setting [7]); over 10 µM in data set [3] (setting [8]); 8.83 µM in the data set with P. falciparum C2B; 10.6 µM with P. falciparum TM91c235 (setting [9]); 5.63 µM with P. falciparum W2 (setting [10]). Besides, the IC50 with P. falciparum D6 (setting [11]) amounted to 8.44 µM; in [4] (setting [12]) it was 32.5 µM. Besides, in data set [5], the Toxicity is reported as over 10 µM.
In the case of `O=C(N/N=C/c1cc(Br)ccc1O)/C(=C/C=C/c1ccccc1)NC(=O)c1ccccc1` [CB-50], the IC50 at 48 h in the data set “in vitro” (HepG2 cells) is over 20 µM. In addition, the GST inhibition result (in [1]; at human GST; in data set [2]) was “did not inhibit” each time. The IC50 in data set [3] (setting [6]) was over 10 µM; in [3] (setting [7]) it was over 10 µM; in data set [3] (setting [8]), over 10 µM; in the data set on P. falciparum C2B, 1.89 µM; in the data set with P. falciparum TM91c235 (setting [9]), 1.84 µM; with P. falciparum W2 (setting [10]) it was 1.15 µM. In the data set with P. falciparum D6 (setting [11]), the IC50 amounted to 1.14 µM. Moreover, the “activity in ookinete formation” value in [4] (dose–response 2.5–75 µM) is listed as “no activity”. The compound also registered a Toxicity in [5] of over 10 µM.
With `O=C(NN=Cc1ccccc1O)c1cc(-c2ccccc2)nc2ccccc12` [CB-53], the concentration for half-maximal inhibition (IC50) at 48 h in the data set “in vitro” (HepG2 cells) was over 20 µM. The GST inhibition entry (in data set [1]; on human GST; in data set [2]) was “did not inhibit” in each case. Moreover, the IC50 in [3] (setting [6]) was over 10 µM; in data set [3] (setting [7]), over 10 µM; in data set [3] (setting [8]), over 10 µM; in the data set on P. falciparum C2B it was over 20 µM; in the data set on P. falciparum TM91c235 (setting [9]), 13.9 µM; in the data set on P. falciparum W2 (setting [10]), over 20 µM. Also, the IC50 with P. falciparum D6 (setting [11]) is over 20 µM; in data set [4] (setting [12]), 14.7 µM. The compound also registered a Toxicity in data set [5] of over 10 µM.
